The test system of one assay is IRF3 dimers. Description: IRF3 dimer luciferase signal in THP-1 (IRF3-BiLC) under different stimulations. The note with it: FIG. 2a. Type of assay: cell-based, human.
The next assay deals with IRF5 dimers. The experiment in a line: IRF5 dimer luciferase signal in THP-1 (IRF5-BiLC) under different stimulations. The note with it: FIG. 2b. Type of assay: cell-based, human.
For another assay, the system named is IRF7 dimers. Description: IRF7 dimer luciferase signal in THP-1 (IRF7-BiLC) under different stimulations. Type of assay: cell-based, human. As to conditions: FIG. 2c.
Another assay concerns IRF3-BiLC. Description: Effect of CHX on IRF3-BiLC in THP-1 (IRF3-BiLC) cells. Type of assay: cell-based, human. The note with it: CHX 100 ng/mL for 10 h, with or without polydA:dT stimulation; normalized to untreated groups; FIG. 5. The procedure: (§1) THP-1-Dual and THP-1 (IRF3-BiLC) cells were plated at a concentration of 1000,000 cells per mL in a 24-well plate. 4 groups were arranged for THP-1-Dual and THP-1 cells respectively, resulting in a total of 8 groups. After 12 hours, for THP-1-Dual cells, two groups of cells were transfected with Lipo2000 and stimulated with […] of polydA:dT, and the other two groups were not treated. The same treatment was performed for THP-1 (IRF3-BiLC). 4 hours after transfection, for the 2 groups of THP-1-Dual cells that were transfected and stimulated with polydA:dT, CHX with a final concentration of 100 ng/mL was added into one group. For the 2 groups of THP-1-Dual cells that were not treated, CHX with a final concentration of 100 ng/mL was added into one group. The other two groups were not treated. The same treatment was performed for THP-1 (IRF3-BiLC).
(§2) After 10 h of CHX treatment, for THP-1-Dual cells, 40 μL of supernatant was taken respectively to detect the luciferase activity. For THP-1 (IRF3-BiLC), 80 μL of Renilla luciferase lysate (purchased from Promega, E2820) was used to lyse on ice for 10 min. […] 20 μL of Renilla luciferase substrate (purchased from Promega, E2820) was added into each well, and the luciferase activity was detected by a microplate reader (purchased from Bio-Tek, Synergy H1).
(§3) The detected values of luciferase were normalized with regard to the untreated groups.

The subject of the next assay is ISRE-Luc. Description: Effect of CHX on ISRE-Luc in THP-1-Dual cells. The note with it: CHX 100 ng/mL for 10 h, with or without polydA:dT stimulation; normalized to untreated groups; FIG. 6. Type of assay: cell-based. As to the method: as §1, §2, §3

In the case of “IL-1B: stimulus used on the THP-1 BiLC reporter cell lines”, the “signals of the IRF3 dimers (luciferase activity)” value with IRF3 dimers is “cannot cause the formation of the signals”. The “signals of the IRF5 dimers (luciferase activity)” value in the assay on IRF5 dimers is “cannot cause the formation of the signals”. The “signals of the IRF7 dimers (luciferase activity)” value with IRF7 dimers was “cannot cause the formation of the signals”.

For the compound TNFa, in the assay on IRF3 dimers, the “signals of the IRF3 dimers (luciferase activity)” value is “cannot cause the formation of the signals”. In addition, the “signals of the IRF5 dimers (luciferase activity)” value with IRF5 dimers is listed as “cannot cause the formation of the signals”. For the same compound, the “signals of the IRF7 dimers (luciferase activity)” value in the assay on IRF7 dimers was “cannot cause the formation of the signals”.

`C[C@@H]1C[C@@H]([C@H](O)CC2CC(=O)NC(=O)C2)C(=O)[C@@H](C)C1` [CHX]: the “effect of CHX on IRF3-BiLC luciferase activity” value in the assay on IRF3-BiLC is given as “capable of reflecting the intracellular type I interferon response reaction”. Further, the “effect of CHX on ISRE-Luc luciferase activity” value in the assay with ISRE-Luc is on record as “affected significantly”.
